According to PubChem BioAssay (NCI):
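Protocol summary: plate cells (96-well), add compound at 5 concentrations, incubate 48 h, interpolate endpoints linearly. Abbreviation: GI50, concentration required for 50% inhibition of growth. At the TGI there is no net growth.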

How the values were obtained:
Experiment in all cases: inhibition of tumour cell growth, NCI panel, 48 h
HCT-116 colon = system: HCT-116 colon
HCT-15 colon = system: HCT-15 colon
HS 578T breast = system: HS 578T breast
M14 melanoma = system: M14 melanoma
MALME-3M melanoma = system: MALME-3M melanoma
NCI-H226 lung = system: NCI-H226 lung
RXF 393 renal = system: RXF 393 renal
SK-MEL-28 melanoma = system: SK-MEL-28 melanoma
UACC-257 melanoma = system: UACC-257 melanoma
HCC-2998 colon = system: HCC-2998 colon

SMILES	GI50 (HCT-116 colon) [µM]	TGI (HCT-116 colon) [µM]	GI50 (HCT-15 colon) [µM]	TGI (HCT-15 colon) [µM]	GI50 (HS 578T breast) [µM]	TGI (HS 578T breast) [µM]	GI50 (M14 melanoma) [µM]	TGI (M14 melanoma) [µM]	GI50 (MALME-3M melanoma) [µM]	TGI (MALME-3M melanoma) [µM]	GI50 (NCI-H226 lung) [µM]	TGI (NCI-H226 lung) [µM]	GI50 (RXF 393 renal) [µM]	TGI (RXF 393 renal) [µM]	GI50 (SK-MEL-28 melanoma) [µM]	TGI (SK-MEL-28 melanoma) [µM]	GI50 (UACC-257 melanoma) [µM]	TGI (UACC-257 melanoma) [µM]	TGI (HCC-2998 colon) [µM]	GI50 (HCC-2998 colon) [µM]
N#Cc1ccccc1C#C/C=C\C#CC#C/C=C\C#Cc1ccccc1C#N	13.6	30.2	12.7	> 100	5.38	78.8	11.3	35.5	14.6	29.8	29.7	> 100	15	68.2	10.6	49.6	52.7	> 100	–	–
COc1ccc(S(=O)(=O)N[C@H](C(=O)O)c2ccccc2)cc1	–	> 100	–	> 100	–	–	–	> 100	–	> 100	–	> 100	–	> 100	–	> 100	–	> 100	> 100	–
Clc1ccc2ncc(-c3cccc(NC4CNC4)n3)n2c1	3.7	> 100	5.39	> 100	3.91	20.6	8.87	25.5	8.59	26.4	–	–	1.45	11.6	13	> 100	11.5	51.4	68.2	12.9
Cc1nc(N)c(-c2ccccc2)s1	–	> 66.8	–	> 62.1	–	–	–	> 100	–	> 100	–	> 100	–	> 68.9	–	> 100	–	> 96.1	> 100	–
COc1ccc2nc(-c3ccccc3)cc(Nc3cccc(C(C)=O)c3)c2c1	3.72	15.4	4.93	22.1	10.5	35.6	5.11	20.2	12.5	27.7	16.1	34.3	–	–	12.4	43.4	18.3	78.7	45.1	13.2
COc1ccc(Cl)cc1Nc1nc(C(F)(F)F)ccc1C(=O)N/N=C/c1cccnc1	3.43	> 100	1.42	> 100	11.8	> 100	2.42	> 100	2.55	> 100	3.49	> 100	–	–	3.95	> 100	3.93	9.88	> 100	1.99
COC(=O)C1C(=O)O[C@@H](c2ccc(OC)c(OC)c2OC)C1C(=O)OC (mixture of isomers)	–	> 100	–	> 100	–	–	–	> 100	–	> 100	–	> 100	–	> 100	–	> 100	–	> 100	> 100	–
CCN(CC)CCN1C(=O)C2C3C(=O)CC(C)(CC3C)C2C1=O (stereo not drawn)	> 100	> 100	> 100	> 100	> 100	> 100	> 100	> 100	> 100	> 100	> 100	> 100	> 100	> 100	–	–	> 100	> 100	> 100	> 100
COc1ccc2c(c1)[n+](=O)c(C(=O)C/C(=N/NC(=O)C[N+](C)(C)C)C(=O)Nc1cccc(C)c1C)c(C)n2O	–	> 100	–	> 100	–	–	–	> 100	–	> 100	–	> 100	–	> 100	–	> 100	–	> 100	> 100	–
CC[C@]1(O)CC2CN(CCc3c([nH]c4ccccc34)[C@@](C(=O)OC)(c3cc4c(cc3OC)N(C=O)[C@H]3[C@@](O)(C(=O)OC)[C@H](OC(C)=O)[C@]5(CC)C=CCN6CC[C@]43[C@@H]65)C2)C1 (stereo partly drawn)	< 0.005	> 50	–	> 50	0.0486	> 46.1	0.00632	0.679	–	–	< 0.005	0.0319	< 0.005	> 50	< 0.005	> 50	< 0.005	> 38.4	–	< 0.005
N#C/C(=C\c1cc(O)ccc1O)C(N)=O	–	> 100	–	> 100	–	–	–	> 100	–	> 100	–	95.4	–	86.6	–	> 100	–	> 100	> 100	–
O=Cc1c(-c2ccccc2)[nH]c2ccccc2c1=O	–	> 100	–	> 100	–	98.9	–	> 100	–	> 100	–	> 100	–	–	–	> 100	–	> 100	> 100	–
Cc1cc(=O)n(-c2c(C)cccc2Cl)c(/C=C(\O)c2ccncc2)n1	–	> 100	–	> 100	–	–	–	> 100	–	> 100	–	> 100	–	> 100	–	> 100	–	> 100	> 100	–
Cc1ccc(-c2nc(N3CCNCC3)c3oc(-c4ccccc4)nc3n2)cc1	1.85	3.29	1.69	3.2	2.53	7.69	1.78	3.31	2.07	3.75	–	–	1.7	3.19	1.91	3.39	> 100	> 100	> 100	> 100
CCOc1ccc2c(c1)CN(Cc1ccc(Cl)cc1)CO2	14.8	29	16.5	34.1	18.2	53.7	–	–	14.8	29.5	30.3	> 100	13.8	29.3	14.4	28.4	16	35.8	35	18.7
CCN(CC)c1ccc2nc3c4ccccc4c(=O)cc-3n(-c3ccccc3)c2c1	1.35	3.27	2.1	49.3	2.37	7.24	1.91	3.8	1.4	3.56	2.04	5.81	1.94	5.83	2.05	7.07	1.12	2.9	–	–
